Experiments:
[1] = test system: mutant lettuce plant (Lactuca sativa), having a mutated version of the OPR3 gene; assay: Reversal of male sterility by spraying young flower buds of homozygous OPR3 mutant lettuce; assay type: in vivo; conditions: for restoration of male fertility in F2 generation: F2 of cross NCIMB 42060 x wild-type lettuce, treatment as described in Example 1; for seed production through selfing: inflorescences sprayed with 200 μM solution, compared with mock-treated control plants (FIG. 1)
Description: A mutant lettuce plant (Lactuca sativa), having a mutated version of the OPR3 gene, was obtained by means of chemical mutagenesis and subsequent TILLING screening of about 3,000 M2 plants.
Phenotypically this mutant lettuce plant was indistinguishable from wild-type lettuce plants, when the mutation was present in a heterozygous state. […] The few pollen grains that developed in such homozygous mutants were not functional.
From the early bolting stage the inflorescences were sprayed 5 times per week, for a total of 3 weeks.

[2] = test system: mutant endive plant (Cichorium endivia), having a mutated version of the OPR3 gene; assay: Reversal of male sterility and pale flower color by treating young flower buds of homozygous OPR3 mutant endive; assay type: in vivo; conditions: for restoration of male fertility in F2 generation: F2 of cross of endive of the invention x wild-type endive, treatment as described in Example 3; for overcoming male sterility caused by the opr3 mutation: homozygous mutant endive, application to flower buds; for flower color of flowers developed from treated flower buds / male fertility (pollen function and seed set through self-pollination): homozygous mutants, daily spraying with 200 μM (0.2 mM) aqueous solution with 0.025% Zipper surfactant; for flower color of flowers developed from treated flower buds: about 3.5 months, untreated or mock-treated flowers pale (FIG. 2); for male fertility (pollen function and seed set through self-pollination): controls remained male-sterile
Description: A mutant endive plant (Cichorium endivia), having a mutated version of the OPR3 gene, was obtained by means of chemical mutagenesis and subsequent TILLING screening of about 10,000 M2 plants.
Phenotypically this mutant endive plant was indistinguishable from wild-type endive plants, when the mutation was present in a heterozygous state. […] The pollen grains that developed in such homozygous mutants were unable to germinate and therefore dysfunctional.
Blue was the wild-type flower color in this endive background.

[3] = test system: Arabidopsis thaliana with mutations in the OPR3 gene; conditions: treating flower buds; cited from earlier work

Structure (SMILES)	restoration of male fertility in F2 generation [1]	restoration of male fertility in F2 generation [2]	overcoming male sterility caused by the opr3 mutation [2]	seed production through selfing ([1]; homozygous mutants)	seed production through selfing ([1]; homozygous mutants, listed as MeJA)	restoration of male fertility ([1]; homozygous mutants, young flower buds sprayed with 200 μM (0.2 mM) aqueous solution plus 0.025% Zipper surfactant, 5 times per week for 3 weeks)	flower color of flowers developed from treated flower buds [2]	flower color of flowers developed from treated flower buds ([2]; listed as MeJA)	male fertility (pollen function and seed set through self-pollination) [2]	male fertility (pollen function and seed set through self-pollination) ([2]; listed as MeJA)	effect of other application methods than spraying ([2]; solution painted onto the surface of young flower buds with a fine brush)	restoration of male fertility [3]
CC/C=C\C[C@H]1C(=O)CC[C@@H]1CC(=O)O [jasmonic acid, (3R,7S)-jasmonic acid]	sufficient to restore male fertility	sufficient to restore male fertility	had the same effect	–	–	–	–	–	–	–	–	–
CC/C=C\CC1C(=O)CCC1CC(=O)OC (stereo not drawn) [methyl jasmonate]	sufficient to restore male fertility	sufficient to restore male fertility	could be overcome	has produced seeds through selfing	produced seeds in a subset of their flowers	sufficient to restore male fertility	changed to blue	developed into blue flowers	has become male-fertile	produced viable, functional pollen and were able to set seed through self-pollination	comparable effects	Male fertility could be restored
